According to PMC2680423 (Cell calcium, 2009):
Where two headings read alike, the source gives them in different places.

Key:
Drosophila TRPL channel [1] = target: T1, Drosophila TRPL channel (Drosophila melanogaster, UniProt P48994); test: Whole cell patch clamp of TRPL channels expressed in S2 cells; format: cell-based; details: for TRPL Activation/Inhibition: Table 1, TRPL expressed in S2 cells; for Reversibility of effect on TRPL channel: washout, S2 cells
T1 sequence (P48994 1-1124): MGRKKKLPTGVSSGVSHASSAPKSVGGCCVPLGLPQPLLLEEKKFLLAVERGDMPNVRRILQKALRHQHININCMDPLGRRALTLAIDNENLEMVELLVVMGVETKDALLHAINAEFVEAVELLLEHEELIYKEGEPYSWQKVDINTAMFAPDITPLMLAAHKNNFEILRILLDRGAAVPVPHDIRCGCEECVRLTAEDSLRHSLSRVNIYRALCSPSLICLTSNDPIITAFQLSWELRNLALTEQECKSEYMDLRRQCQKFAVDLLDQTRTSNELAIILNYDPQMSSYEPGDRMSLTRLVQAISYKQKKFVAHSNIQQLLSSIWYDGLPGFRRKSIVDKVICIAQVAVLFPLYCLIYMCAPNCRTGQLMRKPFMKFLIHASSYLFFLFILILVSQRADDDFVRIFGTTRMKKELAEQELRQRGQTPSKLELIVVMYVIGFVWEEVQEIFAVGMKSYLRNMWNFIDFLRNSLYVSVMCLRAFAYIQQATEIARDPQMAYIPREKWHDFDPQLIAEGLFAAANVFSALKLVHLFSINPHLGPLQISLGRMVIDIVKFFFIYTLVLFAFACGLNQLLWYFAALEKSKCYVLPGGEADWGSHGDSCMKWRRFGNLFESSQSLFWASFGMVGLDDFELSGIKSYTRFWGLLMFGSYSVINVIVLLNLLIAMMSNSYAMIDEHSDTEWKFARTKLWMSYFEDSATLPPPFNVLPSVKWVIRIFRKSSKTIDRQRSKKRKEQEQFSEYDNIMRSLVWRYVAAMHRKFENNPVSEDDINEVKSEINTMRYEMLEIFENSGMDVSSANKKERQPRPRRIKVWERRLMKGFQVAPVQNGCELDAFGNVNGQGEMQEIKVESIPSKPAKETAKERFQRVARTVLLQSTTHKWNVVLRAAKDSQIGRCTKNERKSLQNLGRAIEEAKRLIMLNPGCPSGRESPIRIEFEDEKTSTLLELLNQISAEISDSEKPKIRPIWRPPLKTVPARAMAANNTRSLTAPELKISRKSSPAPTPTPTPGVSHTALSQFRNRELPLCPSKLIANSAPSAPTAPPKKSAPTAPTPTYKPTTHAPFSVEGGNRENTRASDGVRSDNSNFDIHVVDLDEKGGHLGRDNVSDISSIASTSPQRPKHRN

[2] = tested on: S2 cells (TRPL not expressed); format: cell-based, Drosophila; details: control S2 cells
Drosophila TRPL channel [3] = target: T1, Drosophila TRPL channel; details: Table 1; no own experiment shown; cited from earlier work
mammalian TRPM7 = mammalian TRPM7 (Mus musculus, UniProt Q923J1); test: Whole cell patch clamp of TRPM7 expressed in HEK293 cells; format: cell-based
[4] = tested on: mock transfected HEK293 cells; test: Control: mock transfected HEK293 cells, whole cell patch clamp; format: cell-based, Human; details: TRPM7 not expressed
[5] = target: TRPM7-GFP expressed in hippocampal neurons (Mus musculus, UniProt Q923J1); test: Synaptic vesicle release; format: cell-based; details: 500μM
[6] = tested on: control hippocampal neurons; test: Synaptic vesicle release; format: cell-based; details: 500μM
TRPM8 = details: cited from earlier work
native TRP channel = target: T2, native TRP channel (Drosophila melanogaster, UniProt P19334); test: Light induced current; details: WT photoreceptors, 6 min in the dark after application
T2 sequence (P19334 1-1275): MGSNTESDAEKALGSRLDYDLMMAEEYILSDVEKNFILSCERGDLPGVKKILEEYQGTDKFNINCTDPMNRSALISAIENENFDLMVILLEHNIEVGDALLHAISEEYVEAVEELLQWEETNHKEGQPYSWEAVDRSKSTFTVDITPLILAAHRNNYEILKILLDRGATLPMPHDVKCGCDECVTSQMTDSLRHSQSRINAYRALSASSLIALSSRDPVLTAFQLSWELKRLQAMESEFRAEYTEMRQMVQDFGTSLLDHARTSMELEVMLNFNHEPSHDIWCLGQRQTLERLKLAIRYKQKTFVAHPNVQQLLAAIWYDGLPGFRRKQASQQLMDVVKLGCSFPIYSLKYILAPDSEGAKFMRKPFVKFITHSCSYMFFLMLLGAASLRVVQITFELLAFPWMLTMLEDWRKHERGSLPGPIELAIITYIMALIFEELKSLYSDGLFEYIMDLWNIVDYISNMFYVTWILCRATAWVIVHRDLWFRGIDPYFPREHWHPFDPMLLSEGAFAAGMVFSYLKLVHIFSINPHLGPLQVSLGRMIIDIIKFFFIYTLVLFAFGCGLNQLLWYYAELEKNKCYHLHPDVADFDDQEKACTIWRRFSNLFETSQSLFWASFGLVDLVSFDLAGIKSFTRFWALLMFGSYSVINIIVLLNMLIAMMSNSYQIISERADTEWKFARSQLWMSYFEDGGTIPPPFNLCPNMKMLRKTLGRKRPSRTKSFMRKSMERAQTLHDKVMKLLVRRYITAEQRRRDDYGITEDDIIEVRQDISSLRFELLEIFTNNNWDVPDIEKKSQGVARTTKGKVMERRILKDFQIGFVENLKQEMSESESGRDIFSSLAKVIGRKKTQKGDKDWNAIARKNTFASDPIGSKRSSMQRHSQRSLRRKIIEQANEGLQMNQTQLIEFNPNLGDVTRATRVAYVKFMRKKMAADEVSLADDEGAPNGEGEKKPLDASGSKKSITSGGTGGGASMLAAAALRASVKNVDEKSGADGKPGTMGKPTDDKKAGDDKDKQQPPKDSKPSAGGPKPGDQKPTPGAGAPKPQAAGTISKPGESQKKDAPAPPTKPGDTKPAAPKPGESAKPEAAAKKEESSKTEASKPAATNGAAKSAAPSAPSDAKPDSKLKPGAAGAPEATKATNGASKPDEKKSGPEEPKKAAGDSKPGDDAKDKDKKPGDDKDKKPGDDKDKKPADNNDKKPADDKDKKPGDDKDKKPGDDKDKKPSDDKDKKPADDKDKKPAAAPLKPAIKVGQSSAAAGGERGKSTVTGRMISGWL

native TRPL channel = target: T3, native TRPL channel (Drosophila melanogaster, UniProt P48994); test: Light induced current
T3 sequence (P48994 1-1124): T1 sequence (P48994 1-1124)

mammalian TRPM7, sequence (Q923J1 whole entry): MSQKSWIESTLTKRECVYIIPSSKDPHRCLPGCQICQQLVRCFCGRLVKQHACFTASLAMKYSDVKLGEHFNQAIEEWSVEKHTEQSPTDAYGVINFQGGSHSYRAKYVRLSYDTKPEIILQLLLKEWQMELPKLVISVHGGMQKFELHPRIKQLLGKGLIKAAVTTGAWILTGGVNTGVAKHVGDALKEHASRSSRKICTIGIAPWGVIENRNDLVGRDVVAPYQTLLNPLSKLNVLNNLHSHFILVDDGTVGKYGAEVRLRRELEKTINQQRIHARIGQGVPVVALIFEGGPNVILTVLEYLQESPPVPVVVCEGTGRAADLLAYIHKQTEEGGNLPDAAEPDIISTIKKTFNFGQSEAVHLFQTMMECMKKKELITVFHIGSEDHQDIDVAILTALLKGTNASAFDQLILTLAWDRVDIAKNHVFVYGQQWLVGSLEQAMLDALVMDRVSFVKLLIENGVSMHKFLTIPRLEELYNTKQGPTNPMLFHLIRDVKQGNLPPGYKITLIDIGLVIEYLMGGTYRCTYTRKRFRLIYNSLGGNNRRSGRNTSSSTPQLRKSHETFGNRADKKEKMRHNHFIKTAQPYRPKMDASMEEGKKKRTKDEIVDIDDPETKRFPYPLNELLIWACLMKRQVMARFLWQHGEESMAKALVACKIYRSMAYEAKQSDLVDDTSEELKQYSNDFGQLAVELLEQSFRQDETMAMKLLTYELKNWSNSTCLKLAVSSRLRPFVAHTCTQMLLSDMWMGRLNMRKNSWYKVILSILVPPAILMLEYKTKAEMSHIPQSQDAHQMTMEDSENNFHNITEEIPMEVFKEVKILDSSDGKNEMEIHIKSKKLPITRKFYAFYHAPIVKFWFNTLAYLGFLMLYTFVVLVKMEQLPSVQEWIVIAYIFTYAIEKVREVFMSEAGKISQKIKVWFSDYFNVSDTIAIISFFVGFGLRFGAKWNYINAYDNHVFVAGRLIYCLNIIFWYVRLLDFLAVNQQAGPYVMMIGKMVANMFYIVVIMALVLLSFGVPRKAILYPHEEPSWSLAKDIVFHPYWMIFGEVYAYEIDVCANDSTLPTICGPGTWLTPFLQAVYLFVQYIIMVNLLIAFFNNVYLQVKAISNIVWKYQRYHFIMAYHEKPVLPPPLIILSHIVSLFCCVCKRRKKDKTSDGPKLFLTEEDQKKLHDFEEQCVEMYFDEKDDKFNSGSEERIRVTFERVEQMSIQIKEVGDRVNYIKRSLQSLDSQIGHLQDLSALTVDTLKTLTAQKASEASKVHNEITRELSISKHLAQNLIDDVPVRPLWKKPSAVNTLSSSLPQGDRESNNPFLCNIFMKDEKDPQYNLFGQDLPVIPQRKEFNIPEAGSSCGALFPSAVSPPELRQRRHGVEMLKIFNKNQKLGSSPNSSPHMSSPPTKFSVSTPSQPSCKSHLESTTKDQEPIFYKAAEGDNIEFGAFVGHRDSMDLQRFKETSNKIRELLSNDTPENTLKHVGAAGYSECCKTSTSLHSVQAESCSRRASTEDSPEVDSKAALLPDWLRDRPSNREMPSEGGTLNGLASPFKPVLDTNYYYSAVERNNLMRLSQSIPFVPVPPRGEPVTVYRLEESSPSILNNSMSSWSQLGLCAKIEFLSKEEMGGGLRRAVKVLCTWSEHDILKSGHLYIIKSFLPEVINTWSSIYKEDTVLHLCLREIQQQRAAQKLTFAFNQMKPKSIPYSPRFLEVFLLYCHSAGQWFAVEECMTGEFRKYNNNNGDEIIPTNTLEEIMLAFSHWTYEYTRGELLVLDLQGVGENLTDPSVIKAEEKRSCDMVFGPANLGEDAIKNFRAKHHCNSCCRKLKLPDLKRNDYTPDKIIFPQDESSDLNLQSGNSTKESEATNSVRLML
TRPM7-GFP expressed in hippocampal neurons, sequence (Q923J1 whole entry): as above

## CC12CCC(CC1=O)C2(C)C (centres unmarked) [Camphor]
Drosophila TRPL channel [1]; 10mM
  Effect on TRPL-mediated current: activated
Drosophila TRPL channel [1]
  TRPL Activation/Inhibition: Activation

## O=C(O)/C=C/c1ccc(O)c(O)c1 [Caffeic acid]
Drosophila TRPL channel [1]; 5mM (caffeic acid: up to 5mM)
  Effect on TRPL-mediated current: did not block
Drosophila TRPL channel [1]
  TRPL Activation/Inhibition: No effect

## CC1(C)C2CCC1(C)C(O)C2 (centres unmarked) [Borneol]
Drosophila TRPL channel [1]; 5mM (caffeic acid: up to 5mM)
  Effect on TRPL-mediated current: activated
Drosophila TRPL channel [1]
  TRPL Activation/Inhibition: Activation
  Reversibility of effect on TRPL channel: completely reversible
[2]
  Effect on current when TRPL was not expressed: no effect

## O=C/C=C/c1ccccc1 [Cinnamaldehyde]
Drosophila TRPL channel [1]; 2mM
  Effect on TRPL-mediated current: decrease in the TRPL mediated current
Drosophila TRPL channel [1]
  TRPL Activation/Inhibition: Inhibition
  Reversibility of effect on TRPL channel: reversible

## C=C(C)C1CC=C(C)C(O)C1 (mixture of isomers) [Carveol]
Drosophila TRPL channel [1]
  IC50: 4.22 ± 0.4 mM
  TRPL Activation/Inhibition: Inhibition
Drosophila TRPL channel [1]; 5mM (caffeic acid: up to 5mM)
  Effect on TRPL-mediated current: large decrease in the TRPL-dependent current

## CC1CCC(C(C)C)C(O)C1 (centres unmarked) [Menthol]
Drosophila TRPL channel [1]
  IC50: 1.81 ± 0.13 mM
  TRPL Activation/Inhibition: Inhibition
Drosophila TRPL channel [1]; 5mM (caffeic acid: up to 5mM)
  Effect on TRPL-mediated current: large decrease in the TRPL-dependent current

## Cc1ccc(C(C)C)c(O)c1 [Thymol]
Drosophila TRPL channel [1]; 1mM
  Effect on TRPL-mediated current: large decrease in the TRPL-dependent current
Drosophila TRPL channel [1]
  TRPL Activation/Inhibition: Inhibition

## NCCOB(c1ccccc1)c1ccccc1 [2-APB, 2-Aminoethoxydiphenyl borate]
Drosophila TRPL channel [3]
  TRPL Activation/Inhibition: Inhibition

## Cc1ccc(C(C)C)cc1O [Carvacrol]
Drosophila TRPL channel [1]; 500μM
  Effect on TRPL-mediated current: Large suppression of the current
Drosophila TRPL channel [1]
  TRPL Activation/Inhibition: Inhibition
  Reversibility of effect on TRPL channel: reversibly blocked
[2]
  Effect on current when TRPL was not expressed: no effect
Mammalian TRPM7; 500μM
  Effect on TRPM7 mediated current: dramatic decrease
Mammalian TRPM7; HEK293 cells
  Reversibility of block of TRPM7: reversibly blocked
[4]
  Effect on current in mock transfected HEK293 cells: no effect
[5]; before application 73
  ΔF median of boutons after application: 75 arbitrary units (a.u)
[5]; before application 578
  Number of FM detectable boutons after application: 318
[6]
  Effect on presynaptic activity in control neurons: did not affect
[6]; before application 88
  ΔF median of boutons after application: 87 arbitrary units
[6]; before application 764
  Number of FM detectable boutons after application: 845
TRPM8
  Effect on TRPM8: only a minimal effect
Native TRP channel
  Effect on LIC of WT flies (TRP channel): inhibits
Native TRPL channel; 500μM, trp^P343 mutant photoreceptor
  Effect on amplitude of the LIC (native TRPL): dramatic reduction
Native TRPL channel; carvacrol applied in the dark, trp^P343
  Requirement of light stimulation for inhibition of native TRPL: does not require light stimulation

## C=CCc1ccc(O)c(OC)c1 [Eugenol]
Drosophila TRPL channel [1]; 3mM
  Effect on TRPL-mediated current: large decrease in the TRPL-dependent current
Drosophila TRPL channel [1]
  TRPL Activation/Inhibition: Inhibition
